Assay results: PubChem BioAssay AID248 (DTP/NCI, 2004)
“And” between values parts separate entries of the source, which are not always exact repeats. Equal values may be shown once. Inconclusive results and toxic doses are left out.

Tested on: L1210 leukemia ip in BDF1 mice, survival T/C
Assay: NCI In Vivo Anticancer Drug Screen. Data for tumor model L1210 Leukemia (intraperitoneal) in B6D2F1 (BDF1) mice
Conditions: endpoint: mean survival time, higher = longer survival
Summary of the method: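 Mice bearing the transplanted tumor received compound or vehicle. Survival of the treated group was divided by that of the vehicle-treated control group to give the ratio.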

[1] = dose: 50.0 mg/kg/injection, schedule: Q01DX001 (ip), vehicle: saline
[2] = dose: 100.0 mg/kg/injection, schedule: Q01DX001 (ip), vehicle: saline
[3] = dose: 200.0 mg/kg/injection, schedule: Q01DX001 (ip), vehicle: saline
[4] = dose: 100.0 mg/kg/injection, schedule: Q01DX001 (ip), vehicle: other
[5] = dose: 200.0 mg/kg/injection, schedule: Q01DX001 (ip), vehicle: other
[6] = dose: 400.0 mg/kg/injection, schedule: Q01DX001 (ip), vehicle: other
[7] = dose: 50.0 mg/kg/injection, schedule: Q01DX009 (ip), vehicle: saline
[8] = dose: 200.0 mg/kg/injection, schedule: Q01DX009 (ip), vehicle: Klucel (hydroxypropylcellulose) (HPC)

For `NC(CSSCC(N)=NCCCCCSC12CC3CC(CC(C3)C1)C2)=NCCCCCSC12CC3CC(CC(C3)C1)C2`, the T/C (dose: 2.5 mg/kg/injection, schedule: Q04DX002 (ip), vehicle: Klucel (hydroxypropylcellulose) (HPC)) was 100 % of control, the T/C (dose: 5.0 mg/kg/injection, schedule: Q04DX002 (ip), vehicle: Klucel (hydroxypropylcellulose) (HPC)) was 100 % of control and the T/C (dose: 10.0 mg/kg/injection, schedule: Q04DX002 (ip), vehicle: Klucel (hydroxypropylcellulose) (HPC)) was 100 % of control and 90 % of control.

`CCNC(=O)NCc1ccc(C)cc1` was tested, and the T/C (dose: 100.0 mg/kg/injection, schedule: Q04DX002 (ip), vehicle: Klucel (hydroxypropylcellulose) (HPC)) was 102 % of control, the T/C (dose: 200.0 mg/kg/injection, schedule: Q04DX002 (ip), vehicle: Klucel (hydroxypropylcellulose) (HPC)) was 105 % of control and the T/C (dose: 400.0 mg/kg/injection, schedule: Q04DX002 (ip), vehicle: Klucel (hydroxypropylcellulose) (HPC)) was 112 % of control.

In the case of `O/N=C/c1ccc(O)cc1`, the T/C [1] was 96 % of control, the T/C [2] was 108 % of control and the T/C [3] was 102 % of control.

`O=C(O)c1ccc([N+](=O)[O-])cc1OCc1ccccc1` was tested, and the T/C [4] was 103 % of control, the T/C [5] was 95 % of control and the T/C [6] was 97 % of control.

With `Cc1ccc2c(c1N)C(=O)c1ccccc1C2=O` the T/C (dose: 100.0 mg/kg/injection, schedule: Q01DX001 (ip), vehicle: carboxymethylcellulose (CMC)) was 103 % of control, the T/C (dose: 200.0 mg/kg/injection, schedule: Q01DX001 (ip), vehicle: carboxymethylcellulose (CMC)) was 92 % of control and the T/C (dose: 400.0 mg/kg/injection, schedule: Q01DX001 (ip), vehicle: carboxymethylcellulose (CMC)) was 96 % of control.

With `CCCCSCCO` the T/C (dose: 100.0 mg/kg/injection, schedule: Q01DX009 (ip), vehicle: saline with Tween-80) was 89 % of control, the T/C (dose: 100.0 mg/kg/injection, schedule: Q04DX002 (ip), vehicle: saline with Tween-80) was 96 % of control and the T/C (dose: 200.0 mg/kg/injection, schedule: Q01DX009 (ip), vehicle: saline with Tween-80) was 96 % of control. For the same compound, the T/C (dose: 200.0 mg/kg/injection, schedule: Q04DX002 (ip), vehicle: saline with Tween-80) was 93 % of control, the T/C (dose: 400.0 mg/kg/injection, schedule: Q01DX009 (ip), vehicle: saline with Tween-80) was 107 % of control and the T/C (dose: 400.0 mg/kg/injection, schedule: Q04DX002 (ip), vehicle: saline with Tween-80) was 86 % of control.

With `CN(C)CCCCl` the T/C (dose: 25.0 mg/kg/injection, schedule: Q01DX Z (ip), vehicle: other) was 102 % of control, the T/C [7] was 90 % of control and the T/C (dose: 50.0 mg/kg/injection, schedule: Q01DX Z (ip), vehicle: other) was 102 % of control. For the same compound, the T/C (dose: 75.0 mg/kg/injection, schedule: Q04DX003 (ip), vehicle: saline) was 101 % of control, the T/C (dose: 100.0 mg/kg/injection, schedule: Q01DX Z (ip), vehicle: other) was 92 % of control and the T/C (dose: 150.0 mg/kg/injection, schedule: Q04DX003 (ip), vehicle: saline) was 93 % of control.

`CN1CC(COC(=O)CCc2ccc(N(CCCl)CCCl)cc2)C=C2c3cccc4[nH]cc(c34)C[C@H]21` (stereo partly specified) was tested, and the T/C (dose: 3.12 mg/kg/injection, schedule: Q01DX009 (ip), vehicle: saline) was 104 % of control, the T/C (dose: 6.25 mg/kg/injection, schedule: Q01DX009 (ip), vehicle: saline) was 108 % of control and the T/C (dose: 12.5 mg/kg/injection, schedule: Q01DX009 (ip), vehicle: saline) was 110 % of control and 114 % of control. For the same compound, the T/C (dose: 25.0 mg/kg/injection, schedule: Q01DX009 (ip), vehicle: saline) was 117 % of control, the T/C (dose: 25.0 mg/kg/injection, schedule: Q04DX003 (ip), vehicle: saline) was 93 % of control and 107 % of control and the T/C [7] was 117 % of control. For the same compound, the T/C (dose: 50.0 mg/kg/injection, schedule: Q04DX003 (ip), vehicle: saline) was 109 % of control and 117 % of control, the T/C (dose: 100.0 mg/kg/injection, schedule: Q01DX009 (ip), vehicle: saline) was 91 % of control and the T/C (dose: 100.0 mg/kg/injection, schedule: Q04DX003 (ip), vehicle: saline) was 112 % of control. The T/C (dose: 200.0 mg/kg/injection, schedule: Q04DX003 (ip), vehicle: saline) was 124 % of control.

For `C/C(=C\c1ccc(C)cc1)[N+](=O)[O-]`, the T/C (dose: 50.0 mg/kg/injection, schedule: Q01DX001 (ip), vehicle: other) was 108 % of control, the T/C [4] was 100 % of control and the T/C [5] was 92 % of control. For the same compound, the T/C [6] was 103 % of control.

With `O=C(Nc1ccccc1F)OC/C=C/c1ccccc1` the T/C (dose: 100.0 mg/kg/injection, schedule: Q01DX009 (ip), vehicle: Klucel (hydroxypropylcellulose) (HPC)) was 104 % of control, the T/C [8] was 97 % of control and the T/C (dose: 400.0 mg/kg/injection, schedule: Q01DX009 (ip), vehicle: Klucel (hydroxypropylcellulose) (HPC)) was 95 % of control.

With `O=NN1CCOCC1` the T/C [1] was 104 % of control, the T/C [2] was 93 % of control and the T/C [3] was 104 % of control.

With `Cc1cc(C)nc(NS(=O)(=O)c2ccc(N=Nc3nc4[nH]c(N)nc(=S)c4[nH]3)cc2)n1` the T/C (dose: 6.25 mg/kg/injection, schedule: Q01DX009 (ip), vehicle: Klucel (hydroxypropylcellulose) (HPC)) was 151 % of control and 177 % of control, the T/C (dose: 12.5 mg/kg/injection, schedule: Q01DX009 (ip), vehicle: Klucel (hydroxypropylcellulose) (HPC)) was 153 % of control and the T/C (dose: 25.0 mg/kg/injection, schedule: Q01DX009 (ip), vehicle: Klucel (hydroxypropylcellulose) (HPC)) was 112 % of control. The T/C [8] was 102 % of control.
